Source: ChEMBL document CHEMBL1129344, “Chemical synthesis of benzamide adenine dinucleotide: inhibition of inosine monophosphate dehydrogenase (types I and II)” (J Med Chem, 1996)

What was measured:
Homo sapiens [1] = species: Homo sapiens; experiment: Binding affinity towards less potent effect against alcohol dehydrogenase (ADH); assay type: functional
Homo sapiens [2] = species: Homo sapiens; experiment: Compound was evaluated for inhibitory concentration of inosine monophosphate dehydrogenase; assay type: functional, organism-based
Homo sapiens [3] = species: Homo sapiens; experiment: Compound was evaluated for inhibition of inosine monophosphate dehydrogenase type-I; assay type: functional, organism-based
Homo sapiens [4] = species: Homo sapiens; experiment: Compound was evaluated for inhibition of inosine monophosphate dehydrogenase type-II; assay type: functional, organism-based
Homo sapiens [5] = species: Homo sapiens; experiment: Compound was evaluated for binding affinity by enzymatically to inhibit IMPDH; assay type: functional
Homo sapiens [6] = species: Homo sapiens; experiment: Compound was evaluated for inhibitory concentration potent against IMPDH type-II; assay type: functional, organism-based
Homo sapiens [7] = species: Homo sapiens; experiment: Compound was evaluated for inhibitory concentration potent against IMPDH type-I; assay type: functional, organism-based

## NC(=O)c1cccc([C@@H]2O[C@H](CO)[C@@H](O)[C@H]2O)n1
Homo sapiens [1]
  Ki: 0.02 µM
Homo sapiens [2]
  IC50: 26 µM

## NC(=O)c1cccc([C@@H]2O[C@H](CO)[C@@H](O)[C@H]2O)c1
Homo sapiens [3]
  IC50: 0.78 µM
Homo sapiens [4]
  IC50: 0.88 µM
Homo sapiens [5]
  Ki: 0.118 µM

## NC(=O)c1csc([C@@H]2O[C@H](CO)[C@@H](O)[C@H]2O)n1 [TIAZOFURIN]
Homo sapiens [6]
  IC50: 0.101 µM
Homo sapiens [7]
  IC50: 0.094 µM

## NC(=O)c1cncc([C@@H]2O[C@H](CO)[C@@H](O)[C@H]2O)c1
Homo sapiens [2]
  IC50: 7 µM
